How the values were obtained:
adult beagle dogs = assay: Dog study, urine phosphate excretion; format: in vivo; conditions: 2250 mg elemental lanthanum twice daily, oral capsules, cross-over; urine approximately 24 hours after dosing
Procedure: Six adult beagle dogs were dosed orally with capsules of lanthanum oxycarbonate LaCO3OH (compound A) or La2O2CO3 (compound B) in a cross-over design using a dose of 2250 mg elemental lanthanum twice daily (6 hours apart). The doses were administered 30 minutes after provision of food to the animals. At least 14 days washout was allowed between the crossover arms. Plasma was obtained pre-dose and 1.5, 3, 6, 7.5, 9, 12, 24, 36, 48, 60, and 72 hours after dosing and analyzed for lanthanum using ICP-MS. Urine was collected by catheterization before and approximately 24 hours after dosing and creatinine and phosphorus concentrations measured.

[1] = test system: Sprague-Dawley rats with 5/6th nephrectomy; assay: In vivo study in 5/6th nephrectomy rats, urine phosphorus excretion; design: species or system rat; conditions: 314 mg elemental lanthanum/kg/day, oral lavage once daily for 14 days; compared to untreated rats
Procedure: Groups of six adult Sprague-Dawley rats underwent ⅚th nephrectomy in two stages over a period of 2 weeks and were then allowed to recover for a further two weeks prior to being randomized for treatment. The groups received vehicle (0.5% w/v carboxymethyl cellulose), or lanthanum oxycarbonate suspended in vehicle, once daily for 14 days by oral […] (10 ml/kg/day). The dose delivered 314 mg elemental lanthanum/kg/day. Dosing was carried out immediately before the dark (feeding) cycle on each day. Urine samples (24 hours) were collected prior to surgery, prior to the commencement of treatment, and twice weekly during the treatment period. Volume and phosphorus concentration were measured.
Feeding—During the acclimatization and surgery period, the animals were given Teklad phosphate sufficient diet (0.5% Ca, 0.3% P; Teklad No. TD85343), ad libitum. At the beginning of the treatment period, animals were pair fed based upon the average food consumption of the vehicle-treated animals the previous week.
⅚ Nephrectomy—After one week of acclimatization, all animals were subjected to ⅚ nephrectomy surgery. The surgery was performed in two stages. First, the two lower branches of the left renal artery were ligated. One week later, a right nephrectomy was performed. […]

dogs = assay: Palatability study in dogs; format: in vivo, dog; conditions: during hours post meal, 9 dogs
Source text: Lanthanum oxycarbonate was mixed with wet and dry dog food and presented to 9 different dogs, almost all over 40 pounds.

[2] = physical and chemical properties of the phosphate binder; format: physicochemical
Source text: The combination compositions of the present invention are benefited by the physical and chemical properties of the phosphate binders.

Row | stability at high temperatures [2] | solubility in aqueous media ([2]; pH above 2.0) | Compound | urine phosphate excretion, a marker of phosphorous binding (adult beagle dogs) | phosphorus excretion (urine), a marker of dietary phosphorus binding [1] | signs of nausea, vomiting, bloating or flatus (dogs)
1 |  |  | O=C([O-])[O-].[La+3].[OH-] [compound A, LaCO3OH] | reduction of urine phosphate excretion |  | 
2 |  |  | O=C([O-])[O-].[La+3].[La+3].[O-2].[O-2] [compound B, La2O2CO3] | reduction of urine phosphate excretion |  | 
3 |  |  | O=C([O-])[O-].[La+3].[OH-] [lanthanum carbonate hydroxide] |  | decrease in phosphorus excretion | 
4 | stable at high temperatures | sparingly soluble | lanthanum oxycarbonate |  | decrease in phosphorus excretion | None of the dogs exhibited signs of nausea, vomiting, bloating or flatus

— patent publication US20100104664A1, “TREATMENT OF CHRONIC RENAL FAILURE AND OTHER CONDITIONS IN DOMESTIC ANIMALS: COMPOSITIONS AND METHODS” (priority 2005, published 2010)
